Entries after “also recorded” stand apart in the source; their conditions may differ.
What was measured:
[1] = tested on: human lung fibroblasts (HFL-1); assay: Gene expression profiling (microarray, GSEA) of treated HFL-1 fibroblast cultures; assay type: cell-based
Experimental: GSEA was used to explore connections to other datasets. Genes in this dataset were ranked by the t-statistic of the Lm term in the linear model represented by equation (2) shown above. […] For those datasets where raw data was available, the Entrez gene chip definition file (CDF) was used to obtain RMA normalized expression values. Genes from these datasets were ranked by t-statistic. For dichotomous variables, the t-statistic was calculated from a comparison of expression levels observed in the two groups (e.g. cases and controls). For continuous variables, the t-statistic was from a linear model of expression as a function of the continuous variable (e.g. FEV1). Datasets that measured the effect of TGFβ ligands on gene expression in various cell types included Chambers et al., (The American journal of pathology 2003162:533-46) Verrecchia et al., (The Journal of biological chemistry 2001 276:17058-62), GSE749712, GSE545010, GSE665314, GSE1171013, and GSE172415. Lists of genes that change with TGFβ exposure were taken from the publication associated with the microarray data. If lists of at least 25 genes could not be obtained from the literature, the raw data was used from GEO and normalized as described above. The 200 genes with the highest fold change and the 200 genes with the lowest fold change were used as gene sets and compared to a list of all genes from this dataset ranked by their correlation to Lm.
(§1) Normal human diploid lung fibroblasts (HFL-1) were obtained from the American Type Culture Collection (Manassas, Va.) and used between 3-5 consequent passages after thawing of frozen cells. HFL-1 cells were placed in 6-well culture plates (BD Biosciences, Mississauga, ON) at a density of 1×10^5 cells per well in complete cell culture medium (CCM, DMEM supplemented with 10% FBS, 2 mM L-glutamine and 1% of antibiotic solution; Invitrogen, Burlington, ON). Cells were cultured at 37° C. and 5% CO2 in CCM before they reached 80% confluence. Cells were quiesced in CCM with 1% FBS overnight. […] Cells exposed to the CCM with added DMSO served as a vehicle control. Experiments were repeated 3 times using HFL-1 cells during 3 consequent cell culture passages. Total RNA was isolated from HFL-1 monolayers using RNeasy Plus Mini-Kit (Qiagen, Valencia, Calif.) as per manufacturer's instructions. Quantity and quality of the isolated RNA was determined using Agilent 2100 Bioanalyzer (Agilent Technologies, Mississauga, ON). Isolated RNA was processed and hybridized onto the Human Gene 1.0 ST array (Affymetrix Inc., Santa Clara, Calif.) according to the manufacturer's protocol. Transcript-level gene expression estimates were generated using RMA with the Entrez gene CDF version v11. […] Gene expression profiles were ranked for each treatment by t-statistic.

β1-integrin = assay: Immunoblotting for β1-integrin in HFL-1 cells; assay type: cell-based, human; conditions: HFL-1, 48 hrs, FIG. 8A
Experimental: as §1
Production of β1-integrin by HFL-1 cells was assessed by immunoblotting as previously described (Pechkovsky, D. V. et al. The Journal of biological chemistry 2008 283:12898-908). Briefly, total cell protein was extracted from cultured HFL-1 using Cell Protein Extraction Buffer (Biosource, Camarillo, Calif.), quantified by DC Protein Assay (Bio-Rad, Hercules, Calif.), resolved by SDS-PAGE, and transferred to nitrocellulose membranes. Membranes were probed with mouse anti-human β1-integrin antibody (clone 419127, R&D Systems, Minneapolis, Minn.) and anti-β-tubulin antibody (Millipore, Billerica, Mass.) as a loading control. […] Density of the bands was quantified using Odyssey software 2.1 (LI-COR Biosciences). […]

With Glycine-Histidine-Lysine [GHK] the “GSEA: genes that increase after treatment among genes whose expression decreases with increasing emphysema” value ([1]; GHK 0.1 nM or 10 nM (either concentration), HFL-1, FIG. 7A) was “enriched”, the “GSEA: 200 genes most induced by GHK at 1 μM in CMap cancer cell lines among genes that increase with treatment in HFL-1” value ([1]; GHK 0.1 nM, 48 hrs, HFL-1, FIG. 7B) was “enriched” and the ITGB1 expression profile ([1]; GHK 0.1 nM, HFL-1, p=0.004) was “significantly upregulated”. The “GSEA: genes whose expression is decreased with increasing emphysema severity among genes induced by treatment” value ([1]; GHK 10 nM, 48 hrs, HFL-1, FIG. 7C) was “enriched”, the “GSEA: genes whose expression is altered by GHK treatment among genes that change with TGFβ1 treatment” value ([1]; GHK at either concentration (0.1 nM, 10 nM), HFL-1, FIGS. 7B-7D) was “enriched” and the “β1-integrin (ITGB1) protein levels vs vehicle (DMSO) treated controls” value (“β1-integrin … vs vehicle (DMSO) treated controls” for short) (β1-integrin; GHK 0.1 or 10 nM, p<0.01) was “significantly induced; also recorded: increase”.
“TGFβ1: recombinant human TGFβ1 (10 ng/ml, PeproTech)” was tested, and the “GSEA: genes most induced by treatment among genes that decrease in expression with increasing regional emphysema severity” value ([1]; TGFβ1 10 ng/ml, human lung fibroblasts, FDR<0.05, FIG. 7A) was “enriched”, the “β1-integrin … vs vehicle (DMSO) treated controls” value (β1-integrin; TGFβ 10 ng/mL, p<0.05) was “significantly induced” and the “β1-integrin … vs vehicle (DMSO) treated controls” value (β1-integrin; TGFβ 10 ng/mL, p<0.05, listed as TGFβ) was “increase”.
